The record followed here is patent US20220409602A1, “DOPAMINE D3 RECEPTOR LIGANDS FOR TREATMENT OF DYSKINESIA” (TEXAS BIOMEDICAL RESEARCH INSTITUTE, priority 2021, published 2022).

Entries after “also recorded” stand apart in the source; their conditions may differ.

What all share (assay type): in vivo, marmoset
Data set [1] has as its system Parkinsonian marmosets with levodopa-induced dyskinesia. The experiment in a line: levodopa-induced dyskinesia in MPTP Parkinsonian marmosets, dyskinesia rating scale. Conditions: for expression of levodopa-induced dyskinesia: oral, with levodopa 20 mg/kg, test drug 10 mg/kg where stated. How it is done:
Briefly, MPTP (Sigma Aldrich) (dissolved in physiological saline) at a concentration of 2 mg/ml was subcutaneously injected (2 mg/kg B.wt) for 5 consecutive days. After a wash out period of 72 hours from last MPTP injection, the marmosets were returned to their home cages and monitored twice daily for rest of the study period.
(§1) For induction of dyskinesias, Levodopa (Sigma Aldrich) and carbidopa (Sigma Aldrich) at 1:1 were administered orally once daily for 5 days of a week. The drugs were mixed in either Ensure® pudding, cottage cheese, or marshmallows. […] Once the animals were acclimated to the drugs, the dose was increased to 20 mg/kg B.wt and continued for next 6 weeks.
The severity of dyskinesia in the marmosets was categorized using a validated dyskinesia rating scale for NHPs. Dyskinesia was analyzed from 5-minute videos of the monkeys recorded at every 30 minutes on Tuesday, Wednesday and Thursday of each week. The videos were recorded between 9:30 AM-4:30 PM. Each day the vehicle or drugs were administered at 11:30 AM. The severity of dyskinesias was scored for different segments of the animal's body on a scale from 0 to 3, with 0=absent, 1=mild, 2=moderate, 3=severe. The body segments scored were: 1. Right upper limb dyskinesias (0-3); 2. Left upper limb dyskinesias (0-3); 3. Right lower limb dyskinesias (0-3); 4. left lower limb dyskinesias (0-3); 5. Trunk dyskinesias (0-3); 6, Head/facial dyskinesias (0-3). The severity of the rating was based on the frequency and amplitude of the abnormal movements. The total score is deducted from the six sub-scores to yield a dyskinesia score of 0 to 3: with 0=absent, 1=mild, manifesting by transient abnormal involuntary movements with choreic form, flicking of arms and limbs, increased running and hopping in the cages. […] 3=severe, characterized by a sustained dyskinesia manifesting with chorea and athetosis with sinuous writhing movements of the limbs, and dystonia with sustained extension of hind limbs and knees. The animals are unable to reach and grasp for treats (Video 1).

Data set [2] relates to Parkinsonian marmosets. Description: Parkinson's Disease Rating Scale (PDRS) in dyskinetic Parkinsonian marmosets. How it is done:
All the animals (n=3) have been previously treated with MPTP as described in detail. Briefly, MPTP (Sigma Aldrich) (dissolved in physiological saline) at a concentration of 2 mg/ml was subcutaneously injected (2 mg/kg B.wt) for 5 consecutive days. After a wash out period of 72 hours from last MPTP injection, the marmosets were returned to their home cages and monitored twice daily for rest of the study period.
as §1
The severity of symptoms in the marmosets was categorized using a validated Parkinsonian rating scale for NHP. The PDRS correlates highly with striatal dopamine concentrations detected by postmortem immunohistopathology and it is modeled on the Unified Parkinson's Disease Rating Scale (UPDRS) and the Hoehn & Yahr scale used clinically to categorize PD patients. The PDRS was performed in daylight by video recording animals for 30 minutes. The evaluation was carried out biweekly before and after MPTP injections. The videos were scored by a blinded operator using PDRS, with a maximal disability score of 57 in the following manner: 0=normal, 1=mild, 2=moderate, 3=severe; rest tremor, action tremor, tremor of the head, tremor right arm, tremor left arm, freezing, locomotion, fine motor skills right hand, fine motor skills left hand, bradykinesia right arm, bradykinesia left arm, posture, hypokinesia, balance, posture, startle response, gross motor skills right hand and gross motor skills left hand, apathy (defined as a state of indifference), vocalization, drooling or frothing, tongue/face/lips. Independently of the PDRS, rigidity was assessed by evaluating the resistance to passive joint movements and the range of motion during reaching for food. […]

Data set [3] has as its system Parkinsonian marmosets. The experiment in a line: motor activity recorded by actiwatch-mini during levodopa-induced dyskinesia. To be noted: for motor activity / hyperactivity during peak-dose dyskinesia (actiwatch-mini): test drug 10 mg/kg with levodopa 20 mg/kg. How it is done:
as §1
(§2) The diurnal and nocturnal behavior of the marmosets was monitored using the actiwatch mini (Camntech, UK) as previously described. The device is an accelerometer that measures the intensity of the test subject's omnidirectional movements in units or counts that are directly proportional to the animal's activity. The device (2 cm in diameter) was placed on a collar around the neck of the marmoset. The animals were acclimatized to the collar in short sessions of 15 min followed by gradual increments of 30 min, 1 hr, 3 hrs, 6 hrs and 12 hrs. Once acclimatized, the actiwatch mini was attached to the collar and the activity-rest data was recorded for a period of 24 hours on 3 separate days of each treatment. The actiwatches were placed on animals at 8:30 AM and the devices were preset to start recording activity data from 9:00 AM. At 11:30 AM either the vehicle or the drugs were orally administered to the animals. The following day, the actiwatch was removed after 9:00 AM and the data was transferred to a computer through an actiwatch reader using the actiwatch activity and sleep analysis-7 software (Camntech, UK). For sleep analysis, the period of sustained quiescence (marmosets sleep cycle) starting at 7:00 PM in the evening to early morning 6:30 AM (approximately 11½ hrs) was analyzed using the sleep analysis-7 software to quantify the sleep quality and wakeful periods. The duration of sleep time was corrected for individual variations in the animal's behavior to fall asleep at different time of the evening, thereby keeping the period of sleep time analyzed same for all the animals. The analyzed data was then exported to Excel® and plotted using the Graph pad prism statistical software. To determine the change in activity after the administration of drugs, actiwatch data in 10-minute bins were exported using the actiwatch activity and sleep analysis-7 software and plotted in Graph Pad Prism.

Data set [4] has as its system Parkinsonian marmosets. Description: PD-like symptoms and object retrieval task with barrier detour. To be noted: compared to control or SWR-3-73. As for the experimental part: The PD-like symptoms evaluated included tremors, bradykinesia, and posture and general activity measured by an accelerometer device, the Actiwatch mini. In addition, motor and cognitive functions were measured using the object retrieval task with barrier detour.
The object retrieval task with a barrier detour is a reward based behavioral testing system that was previously described to evaluate motor and cognitive functions of NHP. Briefly, the task requires the test subject to retrieve a reward (marshmallow) fastened to a tray from the open side (bypassing the barrier) of a transparent box. […] All parameters measured were previously described in detail. […] The entire process was recorded using a video camera and the recordings were then analyzed and scored by a blinded experimenter. During each trial, the following responses were scored (1) ability of the animal to reach the front, left, or right side of the box, scored under the term “reach act”; (2) hand of choice for the reach, either left or right, scored under the term “hand used”; (3) the outcome of the reach, either success or failure, scored under result section.
Using the above parameters, additional variables were analyzed: 1) Motor problem: Reaching into the open side of the box but without retrieving the reward. […]

Data set [5] relates to Parkinsonian marmosets. The experiment in a line: nocturnal activity and sleep analysis by actiwatch-mini. To be noted: with levodopa 20 mg/kg. How it is done: as §1, §2
Setting [6] is: PD13R 0.1 to 10 mg/kg, SWR-3-73 and amantadine 10 mg/kg.
The mark [7] stands for this setting: first week of high dose levodopa/carbidopa 20 mg/kg.
Setting [8] is: levodopa 20 mg/kg combined with vehicle.
Setting [9] is: levodopa 20 mg/kg acute challenge.

Consider `N#Cc1cccc(N2CCN(CCCCNC(=O)c3ccc(-c4ccsc4)cc3)CC2)c1` [PD13R], for which the “reduction of the expression of dyskinesia in the peak-dose period” value in data set [1] (10 mg/kg with levodopa 20 mg/kg) was “approximately 85%”. For the same compound, in data set [1] (PD13R 0.1 mg/kg with levodopa 20 mg/kg), the anti-dyskinetic effects result is “no anti-dyskinetic effects were observed”. In data set [1] (PD13R 5 mg/kg with levodopa 20 mg/kg), the “time to reach peak-dose dyskinesia” value stood at 1 h. The “dose with optimal anti-dyskinetic outcome” value in data set [1] (dose range with levodopa 20 mg/kg) turned out to be 10 mg/kg. The “expression of levodopa-induced dyskinesia” value in data set [1] is “inhibited the expression of levodopa-induced dyskinesia; also recorded: significantly suppresses the expression of levodopa-induced dyskinesia; also recorded: eliminates the expression of levodopa-induced dyskinesia; also recorded: eliminated the levodopa-induced dyskinesia; also recorded: significantly inhibited the expression of dyskinesias”. The “Parkinson's Disease Rating Scale (PDRS)” value with Parkinsonian marmosets [2] (PD13R 10 mg/kg with levodopa in dyskinetic marmosets) was “significantly improved the PDRS”. In the data set on Parkinsonian marmosets [3] (PD13R 0.1 to 10 mg/kg with levodopa 20 mg/kg), the “hyperactivity during the peak-dose period (actograms)” value was “dose-dependent and significant reduction in the hyperactivity”. Also, the “motor activity / hyperactivity during peak-dose dyskinesia (actiwatch-mini)” value in the data set with Parkinsonian marmosets [3] is “motor activity remained within the therapeutic ON-period zone without dyskinesia; also recorded: maintained the motor activity within the ON-period without dyskinesia; also recorded: kept the motor activity within the ON-period; also recorded: inhibited the increased hyperactivity”. Besides, the “PD-like symptoms and movement coordination” value in the data set on Parkinsonian marmosets [4] was “clear improvement in all PD-like symptoms and movement coordination”.
For the compound `NC12CC3CC(CC(C3)C1)C2` [amantadine], the “expression of levodopa-induced dyskinesia” value in data set [1] is “inhibited the expression of dyskinesia; also recorded: significantly inhibited the expression of dyskinesias”. The “motor activity / hyperactivity during peak-dose dyskinesia (actiwatch-mini)” value in the data set on Parkinsonian marmosets [3] is recorded as “inhibited the increased hyperactivity”. Moreover, the “motor activity / hyperactivity during peak-dose dyskinesia (actiwatch-mini)” value with Parkinsonian marmosets [3] (listed as Amantadine) is recorded as “maintained the motor activity within the ON-period without dyskinesia”. For the same compound, in the data set with Parkinsonian marmosets [5], the “actual awake time during the assumed sleep period” value is on record as “actual awake time was significantly increased”; the “effect on sleep (overall)” value is “experienced abnormal irregular sleep and sleep disturbances”. In the data set on Parkinsonian marmosets [5] (setting [6]), the nocturnal activity entry is “clear abnormal increase in nocturnal activity; also recorded: significant increase in nocturnal activity” and the sleep efficiency entry is “significantly dropped; also recorded: decrease in sleep efficiency; also recorded: sleep efficiency significantly decreased”.
In the case of `N[C@@H](Cc1ccc(O)c(O)c1)C(=O)O` [levodopa, L-3,4-dihydroxy-phenylalanine], the “duration of dyskinesia after dosing” value in data set [1] (6th week of high dose levodopa 20 mg/kg) is reported as “up to 4 hours”. Moreover, in data set [1] (setting [7]), the “duration of abnormal involuntary movements” value is reported as “up to 180 minutes” and the “time after dosing at which abnormal involuntary movements became visible” value was “approximately 30 minutes”. Also, in data set [1] (setting [8]), the “duration of the peak-dose period of dyskinesias” value came out at 2 h and the “time to reach the peak-dose period of dyskinesias after dosing” value was 30 min. In addition, the “highest dyskinesia disability score” value in data set [1] (levodopa 20 mg/kg combined with vehicle, scale 0 to 3) is 3. In addition, in the data set on Parkinsonian marmosets [2] (high doses of levodopa), the “Parkinsonian symptoms (PDRS)” value is given as “worsened the Parkinsonian symptoms”. Further, in the data set with Parkinsonian marmosets [2] (physiological doses of levodopa), the “PDRS” value is listed as “improved the PDRS”. Moreover, in the data set on Parkinsonian marmosets [3] (setting [9]), the “time to cross the dyskinesia threshold after injection (motor activity)” value is given as ≤ 30 min and the “time to return to the ON-period without dyskinesia” value was “approximately 145 minutes”.
